Laboratory results from patent publication US11141413B2, “Method of treating renal cell carcinoma using N-(4-(6,7-dimethoxyquinolin-4-yloxy)phenyl)-N′-(4-fluorophenyl)cyclopropane-1,1-dicarboxamide, (2S)-hydroxybutanedioate” (Exelixis, Inc., priority 2016, dated 2021).

Test system: patients with advanced renal cell carcinoma
Test: METEOR quality of life (FKSI-19, FKSI-DRS, EQ-5D-5L) and time to deterioration
Type: in vivo, human
Details: for EQ-Index, Evero Intercept (change at Week 4) / EQ-VAS, Evero Intercept (change at Week 4) / FKSI-19 Total, Evero Intercept (change at Week 4) / FKSI-DRS (9-item), Evero Intercept (change at Week 4): growth curve analysis
Text: Patients completed the 19-item Functional Assessment of Cancer Therapy-Kidney Symptoms Index (FKSI-19) and the 5-level EuroQoL-5 Dimensions (EQ-5D-5L) questionnaires at baseline and throughout the study. The 9-item FKSI-Disease Related Symptoms (FKSI-DRS) is a subset of FKSI-19. Data were summarized descriptively and by mixed-effects repeated-measures analysis (clinically relevant difference was an effect size ≥0.3). Time to deterioration (TTD) was defined as earlier of death, radiographic progressive disease or ≥4-point decrease from baseline in FKSI-DRS.
QoL was measured by using two validated patient self-reported instruments: the Functional Assessment of Cancer Therapy-Kidney Symptom Index-19 item (FKSI-19) and EuroQol Group's EQ-5D-5L questionnaires. Patients were required to complete the QoL questionnaires before any assessments at each clinic visit prior to the first dose, every 4 weeks through Week 25, every 8 weeks thereafter for the first year, then every 12 weeks thereafter. The QoL assessments were conducted per protocol prior to the patient knowing the results of their next tumor assessment. These assessments were performed regardless of whether study treatment was given, reduced, interrupted, or discontinued until the date of the last tumor imaging assessment. Questionnaires were provided on paper in the patient's own language.
The FKSI-19 instrument is a 19-item self-reported questionnaire with a total score and four subscales that assesses disease-related symptoms (DRS), treatment side effects, and function/well-being associated with advanced kidney cancer. It queries symptom severity and interference in activity and general health perceptions (Rao D, Butt Z, Rosenbloom S, Robinson D Jr, Von Roenn J, Kuzel T M, Cella D. A Comparison of the Renal Cell Carcinoma-Symptom Index (RCC-SI) and the Functional Assessment of Cancer Therapy-Kidney Symptom Index (FKSI). J Pain Symptom Manage. 2009; 38(2):291-8; Rothrock N E, Jensen S E, Beaumont J L, Abernethy A P, Jacobsen P B, Syrjala K, Cella D. Development and initial validation of the NCCN/FACT symptom index for advanced kidney cancer. Value Health. 2013; 16(5):789-96). The FKSI-19 comprises four sub-scales (DRS-Physical, DRS-Emotional, Treatment Side Effects, and Function/Well Being; Table 2.1). Each of the items is scored on a 5-point scale from 0 (not at all) to 4 (very much). Higher FKSI-19 scores indicate improvement. The FKSI-19 ensures content validity congruent with FDA Guidance (FDA. Guidance for Industry. Patient-Reported Outcome Measures: Use in Medical Product Development to Support Labeling Claims. December 2009). and was developed from a previous 9-item DRS version (FKSI-DRS; lack of energy, pain, losing weight, fatigue, short of breath, fevers, bone pain, coughing, blood in urine). The FKSI-19 includes selected treatment side effects that are important to the patient and physician.
The standardized measure of health status EQ-5D-5L, developed by the EuroQol, was also used in this study in order to measure generic health status (Herdman M, Gudex C, Lloyd A, Janssen M, Kind P, Parkin D, t al. Development and preliminary testing of the new five-level version of EQ-5D (EQ-5D-5L). Qual Life Res. 2011; 20(10):1727-36). It comprises five functional and symptom dimensions: mobility, self-care, usual activities, pain/discomfort, and anxiety/depression. Levels indicate increasing severity from Level 1 (no problem) to Levels 2 through 5 (mild problem to extreme problem). The digits from the 5 dimensions were converted into a single population-based index value normalized across the nine countries in the study for which index value sets were available (van Hout B, Janssen M F, Feng Y S, Kohlmann T, Busschbach J, Golicki D, et al. Interim scoring for the EQ-5D-5L: mapping the EQ-5D-5L to EQ-5D-3L value sets. Value Health. 2012; 15(5):708-15). Index values range from 0 to 1 and a higher index score indicates better health. […]

[1] = FKSI-19 item, repeated measures, ITT
[2] = FKSI-19 subscale, repeated measures, ITT
[3] = Late Dropout (Week 41 or later)

CO[C@H]1C[C@@H]2CC[C@@H](C)[C@@](O)(O2)C(=O)C(=O)N2CCCC[C@H]2C(=O)O[C@H]([C@H](C)C[C@@H]2CC[C@@H](OCCO)[C@H](OC)C2)CC(=O)[C@H](C)/C=C(\C)[C@@H](O)[C@@H](OC)C(=O)[C@H](C)C[C@H](C)/C=C/C=C/C=C/1C [everolimus]
Able to work, LSMean change from baseline [1]: −0.101 | Blood in my urine, LSMean change from baseline [1]: −0.001 | Bone pain, LSMean change from baseline [1]: 0.057 | Content with quality life, LSMean change from baseline [1]: −0.017 | Coughing, LSMean change from baseline [1]: −0.059 | Diarrhea, LSMean change from baseline [1]: −0.326 | Enjoy life, LSMean change from baseline [1]: −0.014 | Fatigued, LSMean change from baseline [1]: −0.305 | Fevers, LSMean change from baseline [1]: −0.021 | Good appetite, LSMean change from baseline [1]: 0.181 | Lack of energy, LSMean change from baseline [1]: −0.207 | Losing weight, LSMean change from baseline [1]: −0.301 | Nausea, LSMean change from baseline [1]: 0.069 | Pain, LSMean change from baseline [1]: 0.067 | Short of breath, LSMean change from baseline [1]: −0.271 | Side effects of treatment, LSMean change from baseline [1]: −0.523 | Sleeping well, LSMean change from baseline [1]: −0.152 | Weak all over, LSMean change from baseline [1]: −0.265 | Worry condition worsen, LSMean change from baseline [1]: 0.393 | DRS-Emotional, LSMean change from baseline [2]: 0.393 | DRS-Physical, LSMean change from baseline [2]: −1.386 | Function/Well-Being, LSMean change from baseline [2]: −0.169 | Treatment Side Effects, LSMean change from baseline [2]: −0.814 | Median TTD (bone metastases per IRC at baseline: No): 3.8 mo | Median TTD (bone metastases per IRC at baseline: Yes): 1.9 mo | EQ-Index, Evero Intercept (change at Week 4) (Early Dropout (before Week 24)): −0.046 | EQ-VAS, Evero Intercept (change at Week 4) (Early Dropout (before Week 24)): −2.474 | FKSI-19 Total, Evero Intercept (change at Week 4) (Early Dropout (before Week 24)): −3.643 | FKSI-DRS (9-item), Evero Intercept (change at Week 4) (Early Dropout (before Week 24)): −2.002 | EQ-Index, Evero Intercept (change at Week 4) [3]: 0.033 | EQ-VAS, Evero Intercept (change at Week 4) [3]: 1.012 | FKSI-19 Total, Evero Intercept (change at Week 4) [3]: 1.105 | FKSI-DRS (9-item), Evero Intercept (change at Week 4) [3]: 0.453 | EQ-Index, Evero Intercept (change at Week 4) (Median Dropout (Weeks 25-33)): −0.018 | EQ-VAS, Evero Intercept (change at Week 4) (Median Dropout (Weeks 25-33)): −1.181 | FKSI-19 Total, Evero Intercept (change at Week 4) (Median Dropout (Weeks 25-33)): −1.838 | FKSI-DRS (9-item), Evero Intercept (change at Week 4) (Median Dropout (Weeks 25-33)): −0.843 | Median time to deterioration (TTD) (overall ITT, earlier of death, rPD, ≥4-point FKSI-DRS decrease from baseline): 3.7 mo | EQ-Index, LSMean change from baseline (repeated measures, ITT): −0.02 | EQ-VAS, LSMean change from baseline (repeated measures, ITT): −1.27 | FKSI-19 (19-item) Total Score, LSMean change from baseline (repeated measures, ITT): −2.214 | FKSI-DRS (9-item), LSMean change from baseline (repeated measures, ITT): −0.93
